According to patent US8258114B2, “Modulation of glucose-6-phosphatase translocase expression” (Isis Pharmaceuticals, Inc., priority 2004, dated 2012):
Oligonucleotides are written 5' to 3', each unit as a sugar letter and its base; * is a phosphorothioate linkage, no mark a phosphodiester; rarer units and linkages stand in square brackets, end groups in braces. Plain capitals give the bases only. e = 2'-O-(2-methoxyethyl) (MOE); [5mC] = 5-methylcytosine; d = 2'-deoxy (DNA)

What follows are substances tested on mouse glucose-6-phosphatase translocase mRNA (assay: Antisense inhibition of mouse glucose-6-phosphatase translocase mRNA in primary mouse hepatocytes, 150 nM, LIPOFECTIN (Table 22)). Settings: real-time PCR.
Type: cell-based
Method: Primary mouse hepatocytes were prepared from CD-1 mice purchased from Charles River Labs. Primary mouse hepatocytes were routinely cultured in Hepatocyte Attachment Media supplemented with 10% fetal bovine serum (Invitrogen Life Technologies, Carlsbad, Calif.), 250 nM dexamethasone, and 10 nM bovine insulin (Sigma-Aldrich, St. Louis, Mo.). Cells were seeded into 96-well plates (Falcon-Primaria #353872, BD Biosciences, Bedford, Mass.) at a density of approximately 4,000-6,000 cells/well for use in oligomeric compound transfection experiments.
When cells reached 65-75% confluency, they were treated with oligonucleotide. Oligonucleotide was mixed with LIPOFECTIN™ Invitrogen Life Technologies, Carlsbad, Calif.) in Opti-MEM™-1 reduced serum medium (Invitrogen Life Technologies, Carlsbad, Calif.) to achieve the desired concentration of oligonucleotide and a LIPOFECTIN™ concentration of 2.5 or 3 μg/mL per 100 nM oligonucleotide. This transfection mixture was incubated at room temperature for approximately 0.5 hours. For cells grown in 96-well plates, wells were washed once with 100 μL OPTI-MEM™-1 and then treated with 130 μL of the transfection mixture. Cells grown in 24-well plates or other standard tissue culture plates are treated similarly, using appropriate volumes of medium and oligonucleotide. Cells are treated and data are obtained in duplicate or triplicate. After approximately 4-7 hours of treatment at 37° C., the medium containing the transfection mixture was replaced with fresh culture medium. Cells were harvested 16-24 hours after oligonucleotide treatment.
Quantitation of glucose 6-phosphatase translocase mRNA levels was accomplished by real-time quantitative PCR using the ABI PRISM™ 7600, 7700, or 7900 Sequence Detection System (PE-Applied Biosystems, Foster City, Calif.) according to manufacturer's instructions.
Prior to quantitative PCR analysis, primer-probe sets specific to the target gene being measured were evaluated for their ability to be “multiplexed” with a GAPDH amplification reaction. After isolation the RNA is subjected to sequential reverse transcriptase (RT) reaction and real-time PCR, both of which are performed in the same well. RT and PCR reagents were obtained from Invitrogen Life Technologies (Carlsbad, Calif.). […] The RT reaction was carried out by incubation for 30 minutes at 48° C. Following a 10 minute incubation at 95° C. to activate the PLATINUM® Taq, 40 cycles of a two-step PCR protocol were carried out: 95° C. for 15 seconds (denaturation) followed by 60° C. for 1.5 minutes (annealing/extension).
Gene target quantities obtained by RT, real-time PCR were normalized using either the expression level of GAPDH, a gene whose expression is constant, or by quantifying total RNA using RiboGreen™ (Molecular Probes, Inc. Eugene, Oreg.). GAPDH expression was quantified by RT, real-time PCR, by being run simultaneously with the target, multiplexing, or separately. Total RNA was quantified using RiboGreen™ RNA quantification reagent (Molecular Probes, Inc. Eugene, Oreg.).
A series of oligomeric compounds was designed to target different regions of mouse glucose-6-phosphatase translocase, using published sequences cited in Table 1. All compounds in Table 22 are chimeric oligonucleotides (“gapmers”) 20 nucleotides in length, composed of a central “gap” region consisting of 10 2′-deoxynucleotides, which is flanked on both sides (5′ and 3′) by five-nucleotide “wings”. The wings are composed of 2′-O-(2-methoxyethyl) nucleotides, also known as 2′-MOE nucleotides. The internucleoside (backbone) linkages are phosphorothioate throughout the oligonucleotide. All cytidine residues are 5-methylcytidines. The compounds were analyzed for their effect on gene target mRNA levels by quantitative real-time PCR as described in other examples herein, using the following primer-probe set designed to hybridize to mouse glucose-6-phosphatase translocase: • forward primer: […]
For “145691 (antisense eT*eG*eT*e[5mC]*eT*dG*dA*d[5mC]*dA*dG*dG*dT*dA*dA*d[5mC]*e[5mC]*eA*eG*e[5mC]*eT) [compound 145691]”, the “% Inhib of mouse glucose-6-phosphatase translocase mRNA levels” value (from here on “% Inhib”) was 30%.
For “145692 (antisense eG*e[5mC]*eT*eG*e[5mC]*d[5mC]*dA*dT*d[5mC]*d[5mC]*d[5mC]*dA*dG*d[5mC]*d[5mC]*eA*eT*e[5mC]*eA*eT) [compound 145692]”, the “% Inhib” value was 65%.
For “145693 (eG*eG*eA*eA*eG*dA*dG*dA*dT*dA*d[5mC]*dG*dT*dG*dG*eA*eT*eG*e[5mC]*eT; antisense) [compound 145693]”, the “% Inhib” value was 0%.
For “145694 (eA*eG*eT*e[5mC]*eA*d[5mC]*dT*dG*dG*dT*d[5mC]*dA*d[5mC]*d[5mC]*dG*eT*eT*eA*e[5mC]*eT; antisense) [compound 145694]”, the “% Inhib” value was 23%.
For “145695 (e[5mC]*eA*eA*eT*eG*dG*dG*dA*d[5mC]*d[5mC]*dA*dT*dA*dA*dG*eA*eA*eG*eA*eG; antisense) [compound 145695]”, the “% Inhib” value was 24%.
With “145696 (e[5mC]*eT*e[5mC]*e[5mC]*eA*dA*dA*d[5mC]*dA*dA*dG*dG*d[5mC]*dA*dA*eT*eG*eG*eG*eA; antisense) [compound 145696]” the “% Inhib” value was 37%.
For “145697 (eT*eG*eG*e[5mC]*eT*dA*dT*dG*dA*d[5mC]*dT*d[5mC]*d[5mC]*dA*dA*eA*e[5mC]*eA*eA*eG; antisense) [compound 145697]”, the “% Inhib” value was 45%.
“145698 (e[5mC]*e[5mC]*eA*e[5mC]*eA*dA*dT*dA*dG*d[5mC]*dA*dT*dG*dA*dG*eA*eG*eG*eT*eT; antisense) [compound 145698]” was tested, and the “% Inhib” value was 33%.
With “145699 (eT*e[5mC]*e[5mC]*eA*e[5mC]*d[5mC]*d[5mC]*dA*d[5mC]*dA*dT*dT*dG*dG*d[5mC]*e[5mC]*eA*eT*eA*eA; antisense) [compound 145699]” the “% Inhib” value was 41%.
“145701 (eA*eG*eT*eG*e[5mC]*dT*dT*dG*dG*d[5mC]*dA*dA*dT*dG*dG*eT*eG*e[5mC]*eT*eG; antisense) [compound 145701]” was tested, and the “% Inhib” value was 54%.
In the case of “145703 (eA*e[5mC]*e[5mC]*eA*e[5mC]*dT*dT*d[5mC]*dT*dG*d[5mC]*d[5mC]*dA*d[5mC]*d[5mC]*e[5mC]*eA*eG*eA*eA; antisense) [compound 145703]”, the “% Inhib” value is reported as 42%.
In the case of “145704 (eG*e[5mC]*eT*eG*eG*d[5mC]*dT*d[5mC]*d[5mC]*dA*d[5mC]*dA*dA*dA*d[5mC]*e[5mC]*eA*e[5mC]*eT*eT; antisense) [compound 145704]”, the “% Inhib” value is reported as 54%.
For “145705 (e[5mC]*eT*eT*eG*eG*dT*dG*d[5mC]*dG*dG*dA*dT*dA*dT*dT*eT*e[5mC]*eG*eA*eA; antisense) [compound 145705]”, the “% Inhib” value was 49%.
“145707 (eT*eG*eG*eA*eT*dA*d[5mC]*dT*d[5mC]*dG*dG*d[5mC]*d[5mC]*d[5mC]*dA*eT*e[5mC]*eT*eT*eG; antisense) [compound 145707]” was tested, and the “% Inhib” value was 56%.
In the case of “145708 (eG*eG*eA*e[5mC]*eT*d[5mC]*dG*dA*dT*dT*d[5mC]*dA*d[5mC]*dT*d[5mC]*eT*e[5mC]*e[5mC]*e[5mC]*eT; antisense) [compound 145708]”, the “% Inhib” value is reported as 48%.
With “145709 (eG*eG*eG*eA*eT*dG*d[5mC]*dT*d[5mC]*d[5mC]*dA*dT*dA*dG*d[5mC]*eG*eA*eG*eG*eA; antisense) [compound 145709]” the “% Inhib” value was 14%.
For “145710 (e[5mC]*e[5mC]*eT*eG*e[5mC]*d[5mC]*dA*dG*dT*dA*dA*dG*dG*d[5mC]*dT*eG*e[5mC]*eA*eG*eT; antisense) [compound 145710]”, the “% Inhib” value was 13%.
In the case of “145711 (eG*eA*eG*eA*eG*dA*d[5mC]*dA*dG*dT*dG*dG*dA*dG*dA*e[5mC]*eA*e[5mC]*eA*eG; antisense) [compound 145711]”, the “% Inhib” value is reported as 33%.
With “145712 (eT*eG*eG*eA*eG*dG*dT*dT*d[5mC]*dA*dG*dA*dG*dA*dG*eA*e[5mC]*eA*eG*eT; antisense) [compound 145712]” the “% Inhib” value was 42%.
“145713 (eG*eT*eA*eA*e[5mC]*dT*dT*dG*d[5mC]*dA*dG*d[5mC]*dA*d[5mC]*d[5mC]*eA*eT*eG*eG*eA; antisense) [compound 145713]” was tested, and the “% Inhib” value was 63%.
With “145714 (eG*e[5mC]*e[5mC]*eA*e[5mC]*dT*dG*dG*dT*dA*dA*d[5mC]*dT*dT*dG*e[5mC]*eA*eG*e[5mC]*eA; antisense) [compound 145714]” the “% Inhib” value was 66%.
“145715 (eA*eG*eG*eA*eG*dT*dT*dG*d[5mC]*d[5mC]*dT*dG*dT*d[5mC]*dT*eG*e[5mC]*e[5mC]*eA*eG; antisense) [compound 145715]” was tested, and the “% Inhib” value was 50%.
With “145716 (e[5mC]*e[5mC]*e[5mC]*eT*eG*dA*dA*dT*dT*d[5mC]*dA*dG*dG*dA*dG*eT*eT*eG*e[5mC]*e[5mC]; antisense) [compound 145716]” the “% Inhib” value was 52%.
In the case of “145717 (eT*eA*e[5mC]*eT*e[5mC]*dA*d[5mC]*dT*dA*dG*dG*dA*dG*dA*dT*e[5mC]*eA*eG*eG*eA; antisense) [compound 145717]”, the “% Inhib” value is reported as 52%.
In the case of “145718 (e[5mC]*eA*eA*eT*eT*dT*dT*dG*d[5mC]*d[5mC]*d[5mC]*d[5mC]*d[5mC]*dT*dG*e[5mC]*e[5mC]*eA*eA*eG; antisense) [compound 145718]”, the “% Inhib” value is reported as 26%.
“145719 (eG*eA*eG*eT*eG*dG*dT*dG*dG*dA*d[5mC]*dT*d[5mC]*d[5mC]*dT*e[5mC]*eT*e[5mC]*e[5mC]*eT; antisense) [compound 145719]” was tested, and the “% Inhib” value was 47%.
For “145720 (TCAAATCTAGCTTTATTCGA; 2'-MOE wings and deoxy gap, wing lengths and linkages not given here) [compound 145720]”, the “% Inhib” value was 11%.
For “145721 (eG*eG*e[5mC]*eT*eG*dT*dG*dG*dG*dT*d[5mC]*d[5mC]*d[5mC]*d[5mC]*dG*eA*eA*e[5mC]*eG*eA; antisense) [compound 145721]”, the “% Inhib” value was 0%.
In the case of “145722 (e[5mC]*eA*eG*eT*eG*dT*d[5mC]*d[5mC]*d[5mC]*dT*dG*d[5mC]*dG*dA*d[5mC]*eA*eT*e[5mC]*eA*eG; antisense) [compound 145722]”, the “% Inhib” value is reported as 8%.
For “145723 (eG*e[5mC]*e[5mC]*eG*e[5mC]*d[5mC]*dT*dT*d[5mC]*dT*dG*dG*dA*d[5mC]*dA*eA*eT*e[5mC]*eA*eT; antisense) [compound 145723]”, the “% Inhib” value was 0%.
In the case of “145724 (eG*eG*e[5mC]*eT*e[5mC]*dT*dT*dT*dA*dT*dA*dG*d[5mC]*d[5mC]*dG*e[5mC]*e[5mC]*eT*eT*e[5mC]; antisense) [compound 145724]”, the “% Inhib” value is reported as 0%.
